The nature of the data set: Human HepG2 cell viability assay in 384 well format. It counts as toxicity, cell-based. Also on record: dose 125 nL, time 70.5 hour; cytotoxicity at 70.5 h: concentration not given beside the values. The settings on record: HepG2 cells, read-out: Inhibition.

Data on 94 compounds can be found in ChEMBL document CHEMBL3507680, “University of Dundee, Gates Library screen for HepG2 cell viability”.

Structures are written as SMILES.

Take `Cc1nc([C@H]2C[C@@H]3CCN(Cc4cnn(C)c4)C[C@H]3O2)sc1C`: the cytotoxicity at 70.5 h was -1.71%.

On to `COCCN1CCC2(CCCN(C(=O)c3ccoc3C)C2)C1=O` (centres undefined), for which the cytotoxicity at 70.5 h was -1.73%.

Take `CC(C)N(C)C(=O)C1=NOC2(CCN(C(=O)c3ccncc3)C2)C1` (centres undefined): the cytotoxicity at 70.5 h is -8.56%.

`Cc1noc([C@H]2C[C@H]3OCC[C@H]3N(S(=O)(=O)C3CC3)C2)n1`: the cytotoxicity at 70.5 h was -11.6%.

As for `c1coc(CN2Cc3nccn3CC(Cn3cncn3)C2)c1` (centres undefined), the cytotoxicity at 70.5 h amounted to 1.12%.

As to `COC[C@@]12CCO[C@@H]1CCN(C(=O)COc1ccccc1OC)C2`, the cytotoxicity at 70.5 h was -11.3%.

With `CCN1CC2(CC1=O)CN(C(=O)c1ccco1)CCN(C(=O)N(C)C)C2` (centres undefined), the cytotoxicity at 70.5 h was -5.37%.

With `Cc1cccc(CN2C[C@@H]3COC[C@]3(COc3ccc(C#N)cn3)C2)n1`, the cytotoxicity at 70.5 h was -0.115%.

Regarding `CCS(=O)(=O)N1CCC(c2nc3ccc(-c4ccccc4)cn3n2)CC1`, the cytotoxicity at 70.5 h is -5.21%.

As for `Cc1nc(CN2C(=O)C[C@@H]3[C@@H]2CCN3C(=O)C2CCOCC2)cs1`, the cytotoxicity at 70.5 h was -8.18%.

Consider `c1cncc(OCC2CN(Cc3ccco3)Cc3nccn3C2)c1` (centres undefined), for which the cytotoxicity at 70.5 h worked out at 21.3%.

For `CCOCC(=O)N1C[C@@H]2COC[C@H](c3nc(C)no3)[C@@H]2C1`, the cytotoxicity at 70.5 h was -2.34%.

Take `Cc1noc([C@@H]2CC[C@@H]3[C@@H](CCN3S(=O)(=O)C3CC3)O2)n1`: the cytotoxicity at 70.5 h is 2.67%.

For the compound `CN(C)C(=O)CO[C@@H]1CC[C@H]2[C@H]1OCCN2C(=O)C1CCOCC1`, the cytotoxicity at 70.5 h is -3.79%.

For the compound `CCn1nnc2c1C(COC)CN(C(=O)COc1ccccc1)C2` (centres undefined), the cytotoxicity at 70.5 h came out at 0.105%.

For the compound `COCC1c2c(cnn2C)CCN1Cc1ccoc1` (centres undefined), the cytotoxicity at 70.5 h was -3.89%.

For `C[C@H]1C[C@@H]2CCN(C(=O)c3ccncn3)C[C@H]2O1`, the cytotoxicity at 70.5 h is -0.838%.

As for `COCC1COCCC12CCN(C(=O)CCOc1ccccc1)CC2` (centres undefined), the cytotoxicity at 70.5 h is -2.28%.

Turning to `Cn1cc(-c2cnc(N3CCCC3)nc2)cc1C(=O)O`, the cytotoxicity at 70.5 h stood at 1.36%.

As for `CCO[C@@H]1CC[C@H]2[C@H]1OCCN2C(=O)C1CCOCC1`, the cytotoxicity at 70.5 h is -2.08%.

Turning to `CC(C)NC(=O)C1CN(C(=O)c2ccc(F)cc2)CC12CCOCC2` (centres undefined), the cytotoxicity at 70.5 h stood at 23.6%.

In the case of `Cc1nc(N2CCOCC2)nc2c1CCN(C(=O)NC1CCCC1)CC2`, the cytotoxicity at 70.5 h came to 20.6%.

For `CCN1C[C@H]2CCN(C(C)=O)CC[C@H]2S1(=O)=O`, the cytotoxicity at 70.5 h was -14.5%.

Turning to `O=c1cc(Cn2ccnc2)nc2n1CCCN(Cc1ccsc1)C2`, the cytotoxicity at 70.5 h was -19.5%.

As for `CC1CCc2nn(CCNC(=O)Cc3cccs3)c(=O)cc2C1` (centres undefined), the cytotoxicity at 70.5 h is -2.17%.

On to `CC1CCc2nn(CCNC(=O)c3ccco3)c(=O)cc2C1` (centres undefined), for which the cytotoxicity at 70.5 h was -5.13%.

Regarding `CNC(=O)C1(CCCc2ccccn2)CN(Cc2coc(C)n2)C1`, the cytotoxicity at 70.5 h was -5.7%.

Take `CN1CCC(Cc2cnc3ccccc3c2)C1` (centres undefined): the cytotoxicity at 70.5 h was 1.19%.

For `CNC(=O)c1c[nH]nc1C1CCCN1c1ncccn1` (centres undefined), the cytotoxicity at 70.5 h is -4.93%.

Regarding `Cc1cc2nccc(C3CCCN(C(=O)c4cnccn4)C3)n2n1` (centres undefined), the cytotoxicity at 70.5 h came out at 0.174%.

Consider `CN(C)C(=O)Cn1c(C2CC2)c(CN2CCOCC2)c2cccnc21`, for which the cytotoxicity at 70.5 h was -1.8%.

As for `CSc1ncc(C(=O)N(C)C(C)Cc2ccccn2)cn1` (centres undefined), the cytotoxicity at 70.5 h is -5.33%.

For `Cc1cc(C)n(CC(=O)N2CCC(c3cc4cccnc4[nH]3)CC2)n1`, the cytotoxicity at 70.5 h was 29.7%.

Take `Cc1cc(C)n(CC(=O)N2CCCC2c2cc3cccnc3[nH]2)n1` (centres undefined): the cytotoxicity at 70.5 h stood at 2.7%.

In the case of `CNc1ncc(CN2CCC(CCc3ccccc3)CC2)cn1`, the cytotoxicity at 70.5 h is -1.31%.

As to `COc1cc2c(cc1CN1CCc3sccc3C1C)OCO2` (centres undefined), the cytotoxicity at 70.5 h came to 2.98%.

In the case of `Cc1cnc2[nH]c(C(F)(F)F)c(CN3CCCC(CO)C3)c2c1` (centres undefined), the cytotoxicity at 70.5 h was determined as 3.56%.

`COCC(=O)N1CCC(c2cc(-c3ccc(OC)cc3)n[nH]2)C1` (centres undefined): the cytotoxicity at 70.5 h stood at 10.4%.

For `Cc1ccc(CN2CCc3c(nc4cc(C5CC5)nn4c3O)C2)s1`, the cytotoxicity at 70.5 h was 18.3%.

On to `COCC(=O)N1CCC(c2cc(-c3ccc(C)cc3)n[nH]2)C1` (centres undefined), for which the cytotoxicity at 70.5 h came out at 14.4%.

As to `CC1CCN(Cc2c(C(C)C)[nH]c3ncccc23)CC1`, the cytotoxicity at 70.5 h was -8.35%.

With `COc1ccc2c(c1)NC(C1CCNCC1)NS2(=O)=O` (centres undefined), the cytotoxicity at 70.5 h is -4.76%.

Consider `COc1ccc2c(c1)NC(C1CCN(C(=O)C3CC3)CC1)NS2(=O)=O` (centres undefined), for which the cytotoxicity at 70.5 h is -4.62%.

Turning to `CC(C)OCCCNS(=O)(=O)c1ccc2c(c1)NC(=O)C(C)O2` (centres undefined), the cytotoxicity at 70.5 h is -4.7%.

Take `CCN(CC)CCCNCc1cc2cc(C)ccc2[nH]c1=O`: the cytotoxicity at 70.5 h was found to be 7.87%.

As for `CN1CCC(c2cncc(Cl)n2)CC1`, the cytotoxicity at 70.5 h was -5.05%.

Turning to `CS(=O)(=O)N1CCCC(Cc2cnc(Br)cn2)CC1` (centres undefined), the cytotoxicity at 70.5 h was 13.7%.

With `Cc1cc(C(=O)N[C@@H]2CCC[C@@H](N3CCOCC3)[C@@H]2O)no1`, the cytotoxicity at 70.5 h is -6.42%.

Turning to `Cc1noc(C)c1CCC(=O)NCC1(O)CCN(c2ccccn2)C1` (centres undefined), the cytotoxicity at 70.5 h is -6.52%.

For `CN1CCCC(c2cccc(-c3cccc(F)c3)n2)C1` (centres undefined), the cytotoxicity at 70.5 h was -5.53%.

For the compound `Cc1cc(Oc2ccccc2C)nc(C2CCCN2)n1` (centres undefined), the cytotoxicity at 70.5 h amounted to 9.24%.

For `COCCC(=O)N1CCCC(c2n[nH]cc2C)C1` (centres undefined), the cytotoxicity at 70.5 h was 15.1%.

Take `CC(=O)NC1CCN(c2cnc(C3CCNCC3)cn2)CC1`: the cytotoxicity at 70.5 h is -3.96%.

As to `CC(=O)N1CCN(c2cncc(C3CCNCC3)n2)CC1`, the cytotoxicity at 70.5 h worked out at 34.1%.

Take `CN(C)C(=O)Cn1c(C2CC2)c(CN2CCC(O)CC2)c2cccnc21`: the cytotoxicity at 70.5 h stood at 12.5%.

In the case of `CN(C)C(=O)c1sc2ncccc2c1C1CNCCO1` (centres undefined), the cytotoxicity at 70.5 h is -6.3%.

With `O=C(N[C@H]1CN[C@H]2CCCO[C@H]21)c1cccnc1`, the cytotoxicity at 70.5 h was -10.1%.

As for `COCC1CN(Cc2ccc(F)cc2)Cc2nnn(CC3CC3)c21` (centres undefined), the cytotoxicity at 70.5 h stood at 0.526%.

As to `CN(C)C(=O)CO[C@H]1CN(Cc2cccc(F)c2)[C@@H]2CCCO[C@H]12`, the cytotoxicity at 70.5 h was -0.497%.

For `COCCN1CC[C@@H]2O[C@@H](COCC(=O)N3CCCC3)CC[C@@H]21`, the cytotoxicity at 70.5 h was -3.26%.

For `Cc1ccc(CC(=O)N2Cc3nccn3CC(CN(C)C)C2)cc1` (centres undefined), the cytotoxicity at 70.5 h was -13.3%.

In the case of `c1ccc(N2CCCC3(COCCN(c4nccs4)C3)C2)nc1` (centres undefined), the cytotoxicity at 70.5 h was -0.38%.

Turning to `CC1N(CC2CC2)C(=O)COC12CCN(Cc1nccs1)CC2` (centres undefined), the cytotoxicity at 70.5 h was -8.15%.

Turning to `Cc1noc([C@@H]2C[C@H]3OCC[C@H]3N(S(=O)(=O)c3cccnc3)C2)n1`, the cytotoxicity at 70.5 h is -8.05%.

Take `c1csc(CN2Cc3nccn3CC(Cn3cncn3)C2)n1` (centres undefined): the cytotoxicity at 70.5 h is -7.09%.

As to `CCN1CC2(CC1=O)CN(Cc1ccco1)CCN(C(=O)N(C)C)C2` (centres undefined), the cytotoxicity at 70.5 h is -8.06%.

Take `O=C(Cc1cccs1)N1C[C@@H]2OCCN(CC3CCCC3)[C@@H]2C1`: the cytotoxicity at 70.5 h was -3.16%.

As to `CCc1ccc(CN2CC[C@H]3C[C@H](c4nnc(C)[nH]4)O[C@@H]3C2)o1`, the cytotoxicity at 70.5 h was -1.93%.

For `Cn1cc(C(=O)NC[C@@H]2OC[C@H]3CN(Cc4ccco4)CC[C@H]32)cn1`, the cytotoxicity at 70.5 h is -7.09%.

As for `COCCO[C@@H]1CCN(C(=O)c2ccc(C)o2)[C@@H]1Cc1cccnc1`, the cytotoxicity at 70.5 h was found to be 4.05%.

For the compound `Cc1noc([C@@H]2CC[C@@H]3[C@@H](CCN3S(=O)(=O)c3cccnc3)O2)n1`, the cytotoxicity at 70.5 h was -4.36%.

In the case of `CC(C)NC(=O)N1CCN(CC2CC2)CC2(CC(=O)N(C)C2)C1` (centres undefined), the cytotoxicity at 70.5 h is -4.82%.

With `Fc1cccc(N2C[C@H]3CCN(c4cccnc4)C[C@H]3C2)c1`, the cytotoxicity at 70.5 h is -5.68%.

Take `CCCS(=O)(=O)N1CCC2(CN(c3ccsc3)C(=O)CN2C)C1` (centres undefined): the cytotoxicity at 70.5 h is -3.38%.

With `O=C(NCc1cccs1)[C@H]1CC[C@@H]2[C@@H](CCN2c2ncccn2)O1`, the cytotoxicity at 70.5 h was found to be 2.87%.

For the compound `CC1=N[C@@]2(CC[C@@H]3CN(CC(=O)N(C)C)C[C@@H]32)C(=O)N1CC(C)C`, the cytotoxicity at 70.5 h amounted to 52.3%.

For the compound `CCC1=N[C@@]2(CC[C@@H]3CN(CC(=O)N(C)C)C[C@@H]32)C(=O)N1CC1CC1`, the cytotoxicity at 70.5 h was -13.2%.

As to `CC(=O)NC1CCN(c2ccnc(C3CCNCC3)c2)CC1`, the cytotoxicity at 70.5 h was -5.48%.

For `COCC1CC2(CCN(CC3CC3)CC2)CN1c1ncccn1` (centres undefined), the cytotoxicity at 70.5 h is -3.59%.

In the case of `c1cc2nc(C3CCN(CC4CC4)CC3)nn2cc1N1CCCC1`, the cytotoxicity at 70.5 h was -4.49%.

With `CN(C)Cc1cnc2n1CCN(Cc1ccsc1)CC2`, the cytotoxicity at 70.5 h is -2.43%.

For `Cc1cccc(COC[C@@H]2CC[C@H]3[C@H](CCN3Cc3ccco3)O2)n1`, the cytotoxicity at 70.5 h is -6.18%.

Turning to `Cc1nnc(N2CCCC3(CN(Cc4ccc(C)s4)CCO3)C2)o1` (centres undefined), the cytotoxicity at 70.5 h was -8.9%.

Take `c1cncc(OC[C@]23COC[C@H]2CN(Cc2cccs2)C3)c1`: the cytotoxicity at 70.5 h was -7.3%.

Turning to `COCC1c2c(cnn2CC2CCOCC2)CCN1Cc1ccoc1` (centres undefined), the cytotoxicity at 70.5 h was determined as 3.09%.

As for `COc1ccc(CN2C[C@@H]3COC[C@]3(COc3cccnc3)C2)cc1`, the cytotoxicity at 70.5 h is -7.11%.

Regarding `CCc1ncnc2c1CCN(Cc1ccccn1)CC2`, the cytotoxicity at 70.5 h came out at 28%.

On to `COC[C@@H]1CCC[C@]12CN(Cc1cccc(C)n1)CCO2`, for which the cytotoxicity at 70.5 h was -14.3%.

In the case of `Cn1ncc2c1CN(Cc1cccnc1)CC2COCC1CC1` (centres undefined), the cytotoxicity at 70.5 h was -2.46%.

As to `CN1CC(=O)N(c2ccccc2)CC12CCN(Cc1cccnc1)C2` (centres undefined), the cytotoxicity at 70.5 h is -11.3%.

Regarding `Cc1ccc(CN2CCC(O)(Cn3nc(-c4cccs4)oc3=O)CC2)o1`, the cytotoxicity at 70.5 h is -1.27%.

Turning to `CN(C)CCN(Cc1ccccn1)Cc1ccnn1C1CCCCO1` (centres undefined), the cytotoxicity at 70.5 h is -2.87%.

As for `Fc1ccc(CN[C@@H]2COC[C@H]2c2ccc(F)cc2)cc1`, the cytotoxicity at 70.5 h worked out at 0.602%.

With `Cc1ccc(CN(CCN(C)C)Cc2ccnn2C2CCCCO2)o1` (centres undefined), the cytotoxicity at 70.5 h was -3.26%.
